Values joined by “and” are separate entries in the source; they are usually repeats but may differ in a detail not shown here. Equal entries are not always repeated.
Columns and labels:
PC12 cells [1] = assay: NGF-induced neurite outgrowth in differentiated PC12 cells; assay type: cell-based; parameters: neurite outgrowth, individual values #1-#20 (Fig.4b): unit not given here; settings: [Pd(bpy)] 100 µM; differentiated PC12 cells
Procedure: After incubation for 3 days, PC12 cells bearing neurites were randomly selected, and the length of the longest neurite in each cell was measured using ImageJ package Fiji.

[2] = system: HEK293 cells, vector control; assay: Fura-2 Ca2+ imaging in HEK293 cells transfected with control vector (Vec); assay type: cell-based; settings: single-cell values #1-#20
[3] = system: mGlu1 construct not given; assay: Fura-2 Ca2+ imaging in HEK293 cells, source data Suppl Fig1, left group (c0-c8); construct not given; assay type: cell-based, rat; settings: single-cell values, cells #15-#20; left group of third block
Source text: (§1) Supplement 41467_2022_30828_MOESM6_ESM.zip/Ojima et al_source data_Suppl Fig.xlsx, sheet "Suppl Fig1" | column: Glu; NiCl2; CuCl2; ZnCl2; CdCl2; Na2PdCl2; Pd(bpy)

mGlu1 A59H/A265H mutant = biological target: T1, mGlu1 A59H/A265H mutant (Rattus norvegicus, UniProt P23385, A265H/A59H); assay: Fura-2 Ca2+ imaging in HEK293 cells expressing mGlu1 A59H/A265H; assay type: cell-based; settings: single-cell values
T1 construct: expressed in transfected cells; host or cells: HEK293
T1 sequence (P23385 19-1199 A59H/A265H): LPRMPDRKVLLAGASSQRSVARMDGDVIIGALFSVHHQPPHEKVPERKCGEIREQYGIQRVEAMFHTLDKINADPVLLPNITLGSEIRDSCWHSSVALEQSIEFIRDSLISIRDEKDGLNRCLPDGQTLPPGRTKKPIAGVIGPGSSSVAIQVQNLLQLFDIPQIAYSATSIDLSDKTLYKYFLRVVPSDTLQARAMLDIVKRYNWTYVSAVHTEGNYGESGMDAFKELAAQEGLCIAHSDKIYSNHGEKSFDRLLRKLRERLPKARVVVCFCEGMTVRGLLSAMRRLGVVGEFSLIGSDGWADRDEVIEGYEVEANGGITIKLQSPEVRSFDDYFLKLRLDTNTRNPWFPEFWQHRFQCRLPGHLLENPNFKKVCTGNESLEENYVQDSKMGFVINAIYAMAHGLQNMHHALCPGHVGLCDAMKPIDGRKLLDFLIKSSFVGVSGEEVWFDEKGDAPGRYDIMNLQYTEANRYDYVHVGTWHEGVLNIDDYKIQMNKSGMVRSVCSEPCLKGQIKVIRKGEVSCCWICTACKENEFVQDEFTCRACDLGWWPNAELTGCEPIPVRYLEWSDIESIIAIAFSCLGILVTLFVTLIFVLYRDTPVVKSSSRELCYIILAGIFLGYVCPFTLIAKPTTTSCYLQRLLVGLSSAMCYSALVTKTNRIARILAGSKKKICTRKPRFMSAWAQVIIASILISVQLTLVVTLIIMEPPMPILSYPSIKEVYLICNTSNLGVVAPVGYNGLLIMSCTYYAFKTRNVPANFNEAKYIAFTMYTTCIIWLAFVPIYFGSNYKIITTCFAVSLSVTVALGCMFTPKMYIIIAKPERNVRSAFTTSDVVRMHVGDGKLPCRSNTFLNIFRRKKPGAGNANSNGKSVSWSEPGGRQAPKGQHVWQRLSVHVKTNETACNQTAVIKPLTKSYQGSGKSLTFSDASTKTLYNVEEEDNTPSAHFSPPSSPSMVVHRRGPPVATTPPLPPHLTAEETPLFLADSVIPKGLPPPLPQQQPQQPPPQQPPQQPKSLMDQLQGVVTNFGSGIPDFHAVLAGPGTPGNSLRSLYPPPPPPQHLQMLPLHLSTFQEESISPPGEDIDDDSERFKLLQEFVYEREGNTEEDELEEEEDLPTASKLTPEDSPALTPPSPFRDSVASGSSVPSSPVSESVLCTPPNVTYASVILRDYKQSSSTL

[4] = system: mGlu1 construct not given; assay: Fura-2 Ca2+ imaging in HEK293 cells, source data Suppl Fig1, middle group (c9-c17); construct not given; assay type: cell-based, rat; settings: single-cell values, cells #15-#20; middle group of third block
Source text: as §1

mGlu1 A59H/G266H mutant = biological target: T2, mGlu1 A59H/G266H mutant (Rattus norvegicus, UniProt P23385, A59H/G266H); assay: Fura-2 Ca2+ imaging in HEK293 cells expressing mGlu1 A59H/G266H; assay type: cell-based; settings: single-cell values
T2 construct: expressed in transfected cells; host or cells: HEK293
T2 sequence (P23385 19-1199 A59H/G266H): as the sequence (P23385 19-1199 A59H/A265H) above, with H247A, G248H counted along it

[5] = system: mGlu1 construct not given; assay: Fura-2 Ca2+ imaging in HEK293 cells, source data Suppl Fig1, right group (c18-c26); construct not given; assay type: cell-based, rat; settings: single-cell values, cells #15-#20; right group of third block
Source text: as §1

PC12 cells [6] = assay: Cell proliferation assay of undifferentiated PC12 cells; settings: for cell proliferation, Ave (Fig.4c): average of #1-#3
primary cortical neurons = assay: Fura-2 Ca2+ imaging (abnormal Ca2+ response) in cultured cortical neurons

## O=[N+]([O-])[O-].O=[N+]([O-])[O-].[Pd+2].c1ccc(-c2ccccn2)nc1 [Pd(bpy), Pd(bpy)(NO3)2]
PC12 cells [1]
  neurite outgrowth, individual values #1-#20 (Fig.4b): 136.698 and 130.77 and 122.681 and 121.338 and 121.125 and 116.924 and 109.267 and 109.255 and 105.042 and 102.225 and 101.456 and 94.5391 and 93.196 and 186.64 and 184.25 and 163.439 and 159.066 and 147.882 and 142.225 and 138.024
[2]
  Ca2+ response of individual cells (source data Suppl Fig1), Vec: -0.004731 and 0.3238 and -0.02602 and 0.02754 and -0.0031 and 0.006285 and -0.02257 and 0.004254 and 0.003354 and -0.004338 and -0.001023 and 0.0058 and -0.01141 and 0.05108 and 0.0005846 and 0.297 and 0.004723 and 0.01628 and 0.03037
[3]
  Ca2+ response of individual cells (source data, sheet Suppl Fig1): 0.505 and 0.8787 and 1.066 and 0.2405 and 0.9566 and 0.7627
mGlu1 A59H/A265H mutant
  Ca2+ response of individual cells (source data Suppl Fig1), A59H/A265H: -0.002885 and -0.009254 and 0.08719 and 0.008869 and -0.009738 and 0.003808 and 0.004285 and 0.02012 and -0.02372 and -0.01536 and -0.009285 and -0.02246 and 0.01085 and 0.1127
[4]
  Ca2+ response of individual cells (source data, sheet Suppl Fig1): 0.04373 and -0.04935 and -0.001077 and -0.04196 and -0.007292 and 0.01256
mGlu1 A59H/G266H mutant
  Ca2+ response of individual cells (source data Suppl Fig1), A59H/G266H: 0.2879 and 0.01529 and 0.1021 and -0.0047 and 0.3807 and 0.03304 and 0.0004923 and 0.02376 and -0.0301 and -0.02225 and 0.0004846 and -0.005677 and 0.7275 and 0.6736
[5]
  Ca2+ response of individual cells (source data, sheet Suppl Fig1): 0.001923 and 0.0116 and 0.02873 and 0.01569 and 0.04602 and 0.003608
PC12 cells [6]; 30 μM
  Cell growth: clearly suppressed
PC12 cells [6]; Pd complex 1 µM
  cell proliferation, single experiments #1-#3 (Fig.4c): 1.5318 and 0.8604 and 0.8836
  cell proliferation, Ave (Fig.4c): 1.092
PC12 cells [6]; Pd complex 3 µM
  cell proliferation, single experiments #1-#3 (Fig.4c): 1.071 and 0.9613 and 0.8889
  cell proliferation, Ave (Fig.4c): 0.9739
PC12 cells [6]; Pd complex 10 µM
  cell proliferation, single experiments #1-#3 (Fig.4c): 1.234 and 0.8888 and 0.7605
  cell proliferation, Ave (Fig.4c): 0.961
PC12 cells [6]; Pd complex 30 µM
  cell proliferation, single experiments #1-#3 (Fig.4c): 0.9447 and 0.7842 and 0.619
  cell proliferation, Ave (Fig.4c): 0.7826
PC12 cells [6]; Pd complex 100 µM
  cell proliferation, Ave (Fig.4c): 0.07957
Primary cortical neurons; 1 µM Pd complex
  abnormal Ca2+ response, ave (Fig.4d): 0.03652
Primary cortical neurons; 3 µM Pd complex
  abnormal Ca2+ response, ave (Fig.4d): -0.0001233
Primary cortical neurons; 10 μM
  [Ca2+]i elevation (abnormal Ca2+ response): gradual [Ca^2+]i elevation was observed
Primary cortical neurons; 10 µM Pd complex
  abnormal Ca2+ response, ave (Fig.4d): 0.1988
Primary cortical neurons; 30 μM
  [Ca2+]i elevation (abnormal Ca2+ response): more prominent
Primary cortical neurons; 30 µM Pd complex
  abnormal Ca2+ response, ave (Fig.4d): 2.468
Primary cortical neurons; 100 µM Pd complex
  abnormal Ca2+ response, ave (Fig.4d): 3.162
Primary cortical neurons; 300 µM Pd complex
  abnormal Ca2+ response, ave (Fig.4d): 3.458

From PMC9203742 (Nature Communications, 2022)
